According to US20080119515A1, “Heterocyclic Kinase Inhibitors: Methods of Use and Synthesis” (priority 2003, published 2008):

biological target: T1, ZAP-70 (Homo sapiens, UniProt P43403); test: DELFIA assay (ZAP-70 kinase, phosphorylation of biotinylated poly(glu,tyr)); type: biochemical; settings: ZAP-70 DELFIA, class symbols; read-out: Activity (IC50 in vitro)
T1 sequence (P43403 1-619): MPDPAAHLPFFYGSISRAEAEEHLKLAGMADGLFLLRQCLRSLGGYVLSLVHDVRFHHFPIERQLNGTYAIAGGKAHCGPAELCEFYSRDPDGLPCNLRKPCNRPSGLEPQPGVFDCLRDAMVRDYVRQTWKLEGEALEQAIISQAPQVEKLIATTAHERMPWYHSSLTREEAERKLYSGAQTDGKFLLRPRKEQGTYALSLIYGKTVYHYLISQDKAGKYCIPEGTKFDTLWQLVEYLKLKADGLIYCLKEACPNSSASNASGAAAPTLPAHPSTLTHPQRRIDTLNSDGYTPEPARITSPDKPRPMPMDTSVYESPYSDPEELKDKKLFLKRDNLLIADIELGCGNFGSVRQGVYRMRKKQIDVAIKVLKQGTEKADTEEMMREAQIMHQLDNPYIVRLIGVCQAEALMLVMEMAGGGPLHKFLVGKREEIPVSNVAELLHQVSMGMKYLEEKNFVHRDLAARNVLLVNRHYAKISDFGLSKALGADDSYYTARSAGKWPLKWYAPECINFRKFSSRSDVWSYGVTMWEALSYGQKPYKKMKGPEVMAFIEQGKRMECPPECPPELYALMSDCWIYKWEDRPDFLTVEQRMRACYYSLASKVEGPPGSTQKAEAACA
Method in brief: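 3.1 nM ZAP-70 pre-incubated 10 min at room temperature with compound ([…]) and 62.5 nM biotinylated poly(glu,tyr) in 62.5 mM Mops pH 7.0, 12.5 mM MgCl2, 12.5% glycerol, 6.25% DMSO (pre-incubation concentrations); ATP added from 5 mM stock, 30 min reaction, EDTA stop. Phosphorylation read by DELFIA europium anti-phosphotyrosine fluorescence (340/615).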

| SMILES | IC50 [µM] |
| --- | --- |
| CCN(Cc1ccc(C)cc1)c1cc(C(=O)N2CCC[C@H]2CN2CCCC2)c2cc(-c3ccc4c(c3)OCO4)ccc2n1 [Compound 405] | < 1 |
| CC(Nc1cc(C(=O)N2CCC[C@H]2CN2CCCC2)c2cc(-c3ccc(C#N)cc3)ccc2n1)c1ccc2ccccc2c1 (some centres unmarked) [Compound 208] | > 10 |
| O=C(c1cc(CCc2cccc(C(F)(F)F)c2)nc2ccc(-c3ccc4c(c3)OCO4)cc12)N1CCC[C@H]1CN1CCCC1 [Compound 410] | < 1 |
| N#Cc1ccc(-c2ccc3nc(CCc4ccc(Cl)cc4)cc(C(=O)N4CCC[C@H]4CN4CCCC4)c3c2)cc1 [Compound 390] | > 10 |
| O=C(c1cc(/C=C/c2ccccc2)nc2ccc(-c3ccc4c(c3)OCO4)cc12)N1CCC[C@H]1CN1CCCC1 [Compound 130] | 1 to 10 |
| C[Si](C)(C)C#Cc1cc(C(=O)N2CCC[C@H]2CN2CCCC2)c2cc(-c3ccc4c(c3)OCO4)ccc2n1 [Compound 402] | < 1 |
| Cc1c(-c2ccc3nc(NCc4ccc(C(F)(F)F)cc4)cc(C(=O)N4CCC[C@H]4CN4CCCC4)c3c2)sc2ccc(Cl)cc12 [Compound 353] | > 10 |
| COc1ccc(CCNc2cc(C(=O)N3CCC[C@H]3CN3CCCC3)c3cc(-c4ccc(C#N)cc4)ccc3n2)cc1 [Compound 177] | > 10 |
| N#Cc1ccc(-c2ccc3nc(NCc4ccc5c(c4)CCO5)cc(C(=O)N4CCC[C@H]4CN4CCCC4)c3c2)cc1 [Compound 318] | 1 to 10 |
| N#Cc1ccc(-c2ccc3nc(NCc4cc(F)cc(C(F)(F)F)c4)cc(C(=O)N4CCC[C@H]4CN4CCCC4)c3c2)cc1 [Compound 195] | > 10 |
| N#Cc1ccc(-c2ccc3nc(N[C@@H]4c5ccccc5C[C@@H]4O)cc(C(=O)N4CCC[C@H]4CN4CCCC4)c3c2)cc1 [Compound 209] | > 10 |
| CN(c1cc(C(=O)N2CCC[C@H]2CN2CCCC2)c2cc(-c3ccc4c(c3)OCO4)ccc2n1)C1CCCCC1 [Compound 70] | < 1 |
| O=C(c1cc(NCc2ccc(C(F)(F)F)cc2)nc2ccc(/C=C/c3ccccc3)cc12)N1CCC[C@H]1CN1CCCC1 [Compound 290] | 1 to 10 |
| CN(C)c1ccc(Nc2cc(CCc3ccc(F)cc3)nc3ccc(-c4ccc5c(c4)OCO5)cc23)cc1 [Compound 415] | > 10 |
| O=C(c1cc(Nc2ccc(Cl)cc2)nc2ccc(-c3ccc4c(c3)OCO4)cc12)N1CCC[C@H]1CN1CCCC1 [Compound 52] | < 1 |
| O=C(c1cc(NCc2ccc(C(F)(F)F)cc2)nc2ccc(-c3ccc(Cl)c(Cl)c3)cc12)N1CCC[C@H]1CN1CCCC1 [Compound 105] | < 1 |
| O=C(c1cc(NCc2ccc(C(F)(F)F)cc2)nc2ccc(-c3ccsc3)cc12)N1CCC[C@H]1CN1CCCC1 [Compound 294] | < 1 |
| O=C(c1cc(CCCc2ccc(Cl)cc2)nc2ccc(-c3ccc4c(c3)OCO4)cc12)N1CCC[C@H]1CN1CCCC1 [Compound 406] | < 1 |
| CSc1ccccc1CNc1cc(C(=O)N2CCC[C@H]2CN2CCCC2)c2cc(-c3ccc(C#N)cc3)ccc2n1 [Compound 228] | > 10 |
| O=C(c1cc(CCc2ccc(C(F)(F)F)cc2)nc2ccc(-c3ccc4c(c3)OCO4)cc12)N1CCC[C@H]1CN1CCCC1 [Compound 137] | 1 to 10 |
| CN(C)c1ccc(Nc2cc(/C=C/c3ccc(F)cc3)nc3ccc(-c4ccc5c(c4)OCO5)cc23)cc1 [Compound 412] | > 10 |
| O=C(c1cc(NCc2ccc(C(F)(F)F)cc2)nc2ccc(/C=C/c3ccc(Cl)cc3)cc12)N1CCC[C@H]1CN1CCCC1 [Compound 286] | < 1 |
| CN(Cc1ccccc1)c1cc(C(=O)N2CCC[C@H]2CN2CCCC2)cc(-c2ccc3c(c2)OCO3)n1 [Compound 276] | > 10 |
| N#Cc1ccc(-c2ccc3nc(CCc4ccc(C(F)(F)F)cc4)cc(C(=O)N4CCC[C@H]4CN4CCCC4)c3c2)cc1 [Compound 389] | < 1 |
| N#Cc1ccc(-c2ccc3nc(NCc4ccc(Cl)cc4F)cc(C(=O)N4CCC[C@H]4CN4CCCC4)c3c2)cc1 [Compound 180] | > 10 |
| O=C(c1cc(NCc2ccccn2)nc2ccc(-c3ccc4c(c3)OCO4)cc12)N1CCC[C@H]1CN1CCCC1 [Compound 33] | 1 to 10 |
| O=C(c1cc(NCc2ccc(C(F)(F)F)cc2)nc2ccc(-c3ccc(CO)cc3)cc12)N1CCC[C@H]1CN1CCCC1 [Compound 417] | > 10 |
| O=C(c1cc(NCc2ccc(C(F)(F)F)cc2)nc2ccc(/C=C/c3cccc(C(F)(F)F)c3)cc12)N1CCC[C@H]1CN1CCCC1 [Compound 288] | 1 to 10 |
| O=C(c1cc(NCc2ccc(C(F)(F)F)cc2)nc2ccc(-c3cccnc3)cc12)N1CCC[C@H]1CN1CCCC1 [Compound 334] | > 10 |
